Nine compounds from ChEMBL document CHEMBL3352634 (Bioorg Med Chem Lett, 2014) can be followed below.

Experiment [1] deals with T1, Peroxisome proliferator-activated receptor alpha (Homo sapiens, UniProt Q07869).
T1 sequence (Q07869 whole entry): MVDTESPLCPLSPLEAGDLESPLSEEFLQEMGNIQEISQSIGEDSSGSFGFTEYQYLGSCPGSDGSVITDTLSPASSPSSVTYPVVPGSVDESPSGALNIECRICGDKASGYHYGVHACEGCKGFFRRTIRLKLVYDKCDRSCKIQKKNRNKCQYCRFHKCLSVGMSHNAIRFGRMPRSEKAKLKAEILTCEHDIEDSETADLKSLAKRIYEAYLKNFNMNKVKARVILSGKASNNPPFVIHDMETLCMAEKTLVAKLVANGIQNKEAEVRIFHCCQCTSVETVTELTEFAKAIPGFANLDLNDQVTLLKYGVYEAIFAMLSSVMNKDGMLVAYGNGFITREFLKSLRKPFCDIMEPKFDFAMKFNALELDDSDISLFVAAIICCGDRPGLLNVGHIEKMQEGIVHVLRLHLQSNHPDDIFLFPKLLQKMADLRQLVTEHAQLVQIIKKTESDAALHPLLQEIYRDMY
The experiment in a line: Agonist activity at wild-type human PPARalpha LBD expressed in COS7 cells after 12 hrs by Dual-Glo luciferase assay. The class given is cell-based, COS-7.

Experiment [2] addresses T2, Peroxisome proliferator-activated receptor alpha (Homo sapiens) (UniProt Q07869).
T2 sequence (whole entry): T1 sequence (Q07869 whole entry)
The experiment in a line: Agonist activity at wild-type human PPARalpha LBD expressed in COS7 cells after 12 hrs by Dual-Glo luciferase assay relative to control. The conditions noted are these: COS-7. The class given is cell-based.

Experiment [3] deals with T3, Peroxisome proliferator-activated receptor gamma (Homo sapiens, UniProt P37231).
T3 sequence (P37231 whole entry): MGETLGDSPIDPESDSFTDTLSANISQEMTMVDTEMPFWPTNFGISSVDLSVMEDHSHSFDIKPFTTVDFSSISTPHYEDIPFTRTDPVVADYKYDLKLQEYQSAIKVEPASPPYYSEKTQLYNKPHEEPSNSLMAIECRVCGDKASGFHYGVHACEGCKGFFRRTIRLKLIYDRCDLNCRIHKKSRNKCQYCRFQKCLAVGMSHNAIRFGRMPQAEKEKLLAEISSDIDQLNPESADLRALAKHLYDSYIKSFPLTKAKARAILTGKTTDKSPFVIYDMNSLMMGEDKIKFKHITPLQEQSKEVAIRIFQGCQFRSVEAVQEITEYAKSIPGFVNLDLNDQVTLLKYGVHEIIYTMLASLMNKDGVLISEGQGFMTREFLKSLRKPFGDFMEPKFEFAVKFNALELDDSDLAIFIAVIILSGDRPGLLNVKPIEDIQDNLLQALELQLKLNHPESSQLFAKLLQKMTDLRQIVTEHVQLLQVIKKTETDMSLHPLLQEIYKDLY
Briefly: Agonist activity at human PPARgamma LBD expressed in COS7 cells after 12 hrs by Dual-Glo luciferase assay. The class given is cell-based, COS-7.

Experiment [4] concerns the target T4, Peroxisome proliferator-activated receptor gamma (Homo sapiens) (UniProt P37231).
T4 sequence (whole entry): T3 sequence (P37231 whole entry)
The experiment in a line: Agonist activity at human PPARgamma LBD expressed in COS7 cells after 12 hrs by Dual-Glo luciferase assay relative to pioglitazone. It is filed as cell-based. The conditions noted are these: COS-7.

Experiment [5] has as its target Peroxisome proliferator-activated receptor alpha (Homo sapiens, UniProt Q07869, T279A). The experiment in a line: Agonist activity at wild-type human PPARalpha Thr279Ala mutant expressed in COS7 cells after 12 hrs by Dual-Glo luciferase assay. The class given is cell-based, COS-7.
In experiment [6] the test system is T5, Peroxisome proliferator-activated receptor alpha (Homo sapiens), Q07869 [T279A].
T5 sequence (whole entry): T1 sequence (Q07869 whole entry) with T279A
The experiment in a line: Agonist activity at wild-type human PPARalpha Thr279Ala mutant expressed in COS7 cells after 12 hrs by Dual-Glo luciferase assay relative to control. The class given is cell-based. As to conditions: COS-7.

A further experiment has as its system COS-7. Briefly: Selectivity ratio of EC50 for human PPARgamma LBD expressed in COS7 cells to EC50 for wild-type human PPARalpha LBD expressed in COS7 cells. The class given is cell-based.
Experiment [7] concerns the target T2, Peroxisome proliferator-activated receptor alpha (Homo sapiens). Briefly: Agonist activity at wild-type human PPARalpha LBD expressed in COS7 cells after 12 hrs by Dual-Glo luciferase assay relative to pirinixic acid. As to conditions: COS-7. The class given is cell-based.

Where a chain is given by its changes, count along the chain named.

Peroxisome proliferator-activated receptor alpha (Homo sapiens, UniProt Q07869, T279A), sequence (Q07869 whole entry T279A): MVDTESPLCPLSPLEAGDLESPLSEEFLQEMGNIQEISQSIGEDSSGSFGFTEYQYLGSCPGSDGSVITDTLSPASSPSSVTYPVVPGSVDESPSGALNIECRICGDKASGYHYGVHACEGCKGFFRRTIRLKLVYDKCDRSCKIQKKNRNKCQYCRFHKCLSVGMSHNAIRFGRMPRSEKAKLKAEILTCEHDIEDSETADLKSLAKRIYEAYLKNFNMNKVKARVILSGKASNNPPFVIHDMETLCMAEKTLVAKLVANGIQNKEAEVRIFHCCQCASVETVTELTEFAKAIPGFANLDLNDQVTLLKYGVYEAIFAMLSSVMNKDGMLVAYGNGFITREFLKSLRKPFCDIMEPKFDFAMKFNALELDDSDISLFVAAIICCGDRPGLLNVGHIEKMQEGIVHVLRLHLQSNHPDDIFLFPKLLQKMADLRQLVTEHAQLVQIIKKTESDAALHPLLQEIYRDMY

For orientation: EC50 means the concentration needed to bring the measured effect to its halfway point. Turning to `CCCCCCC(Sc1nc(Cl)cc(Nc2ccc(Cc3ccccc3)cc2)n1)C(=O)O` (stereo not drawn), the EC50 in experiment [1] came out at 720 nM; in experiment [3], 490 nM; in experiment [5], 240 nM. For the same compound, the %max in experiment [2] stood at 127%; in experiment [4] it was 158%; in experiment [6] it was 83%.

For the compound `Cc1cccc(Nc2cc(Cl)nc(SCC(=O)O)n2)c1C`, the %max in experiment [4] worked out at 79%.

Regarding `CCCCCCC(Sc1nc(Cl)cc(Nc2ccc(C(=O)c3ccccc3)cc2)n1)C(=O)O` (stereo not drawn), the EC50 in experiment [1] turned out to be 280 nM; in experiment [3], 1200 nM; in experiment [5] it was 70 nM. Further, the results for the %max in experiment [2], in experiment [4] and in experiment [6] were 134%, 117% and 105%, respectively.

As for `CCCCCCC(Sc1nc(Cl)cc(Nc2ccc(Nc3ccccc3)cc2)n1)C(=O)O` (stereo not drawn), the EC50 in experiment [1] was 70 nM; in experiment [3], 690 nM; in experiment [5] it was 100 nM. Further, the %max in experiment [2] was 95%; in experiment [4], 126%; in experiment [6], 115%. In addition, in the experiment with COS-7, the Ratio EC50 was more than 10.

With `O=C(O)CSc1nc(Cl)cc(Nc2ccc(Nc3ccccc3)cc2)n1`, the EC50 in experiment [1] came out at 12000 nM; in experiment [3], 12400 nM. For the same compound, the %max in experiment [2] amounted to 133%; in experiment [4] it was 143%.

`CCCCCCC(Sc1nc(Cl)cc(Nc2ccc(Oc3ccccc3)cc2)n1)C(=O)O` (stereo not drawn): the EC50 was 280 nM in experiment [1], 2360 nM in experiment [3] and 150 nM in experiment [5]. Also, the results for the %max in experiment [2], in experiment [4] and in experiment [6] were 155%, 146% and 87%, respectively.

In turn, `CCCCC(Sc1nc(Cl)cc(Nc2cccc(C)c2C)n1)C(=O)O` (stereo not drawn) returned a %max in experiment [4] of 120%.

As for `CCCCCCC(Sc1nc(Cl)cc(Nc2cccc(C)c2C)n1)C(=O)O` (stereo not drawn), it took 1000 nM to reach a half-maximal effect in experiment [1] (EC50). The %max in experiment [7] came to 146%; in experiment [4] it was 139%.

As to `CCCCC(Sc1nc(Cl)cc(Nc2ccc(Nc3ccccc3)cc2)n1)C(=O)O` (stereo not drawn), the results for the EC50 in experiment [1] and in experiment [3] were 350 nM and 1060 nM, respectively. The %max in experiment [2] was 137%; in experiment [4] it was 135%.
